Values quoted from earlier work, collected in patent publication US12296348B2, “Electrostatic precipitator” (TECHNISCHE UNIVERSITÄT DORTMUND, priority 2019, dated 2025).

Conditions: solubility limited in terms of its bioavailability

In the case of `COc1ccc2cc([C@H](C)C(=O)O)ccc2c1` [unprocessed naproxen, naproxen], the BCS classification is listed as “Class II”.
